According to article PMC8242589, “Cardiac Safety of Kinase Inhibitors – Improving Understanding and Prediction of Liabilities in Drug Discovery Using Human Stem Cell-Derived Models” (Frontiers in Cardiovascular Medicine, 2021):
pIC50: −log10 of the molar value. Values belong to the molecule of their own block, whether it stands above or below them.

Assays:
ROCK2 = settings: ref [36] (RKI-1447), [37], [38] (Fasudil), [39]–[43] (Y-27632), [44], [45] (GSK-429286); read-out: Target IC50 ROCK2; cited from earlier work
[1] = test system: hSC-CMs (Cor.4U Cardiomyocytes); assay: ATP assay (CellTiter-Glo Luminescent Cell Viability Assay); assay type: cell-based, human; settings: for ATP / viability at 0.01 µM / viability at 0.1 µM / viability at 1 µM / viability at 10 µM: normalized to time-matched DMSO control; for viability at 0.01 µM / viability at 0.1 µM / viability at 1 µM / viability at 10 µM: Homo sapiens, Cardiomyocyte
Experimental: Cor.4U® Cardiomyocytes (Ncardia, Netherlands) were cultured in 96-well plates at density of 25,000 – 30,000 cells per well. Cells were maintained at 5% CO2 and 37 °C for 4 days prior to experiments. The cell culture medium (Cor4U® Complete Culture Medium, cat# Ax-M-HC250E, Axiogenesis AG, Cologne, Germany) was changed every 24 h and was replaced by serum-free BMCC medium (cat# Ax-M-BMCC259, Axiogenesis AG, Cologne, Germany) 12 h prior to drug addition.
The CellTiter-Glo Luminescent Cell Viability Assay (cat# G7572, Promega, USA) was performed for quantification of the cellular ATP concentration according to manufacturer's instructions. Plates were shaken for 2 min in the dark, incubated at ambient temperature for 10 min before measuring luminescence (Integration time 0.1 seconds per well) with Luminescence Counter (Synergy H1, BioTek Instruments, Inc., Winooski, Vermont). The measured ATP concentration values were normalized to the time-matched DMSO controls. Data are representative of at least three replicates per concentration.

[2] = test system: hSC-CMs (Cor.4U Cardiomyocytes); assay: CardioExcyte 96 impedance and EFP recording (beating rate, base impedance); assay type: cell-based, human; settings: for BR / Base Imp / activity at 0.01 µM / activity at 0.1 µM / activity at 1 µM / activity at 10 µM: vs baseline before drug (taken as 100%); for activity at 0.01 µM / activity at 0.1 µM / activity at 1 µM / activity at 10 µM: Homo sapiens, Cardiomyocyte
Experimental: Cor.4U® Cardiomyocytes (Ncardia, Netherlands) were cultured in 96-well plates at density of 25,000 – 30,000 cells per well. Cells were maintained at 5% CO2 and 37 °C for 4 days prior to experiments.
Functional monitoring of cardiomyocytes was done using CardioExcyte® 96 (Nanion technologies GmbH, Germany). Extracellular field potential (EFP) and impedance signals were recorded from hSC-CMs that formed monolayers in the wells of the NSP-96 plate. Beating Rate (BR, per minute) was calculated as the reciprocal of the inter-spike interval (ISI) in EFP signal. Impedance signals from spontaneously beating hSC-CMs were recorded with a sampling rate of 1 ms (1 kHz), and EFP data were collected at 0.1ms (10 kHz). Data acquisition was controlled by CardioExcyte® 96 Control software as previously described ([22]). The functional parameters recorded in each concentration of test items were compared to the base line values before drug addition (taken as 100%) to define fractional change.

[3] = test system: hSC-CMs (Cor.4U Cardiomyocytes); assay: Apoptosis assay (CellEvent Caspase-3/7 Green, IncuCyte ZOOM kinetics over 24 h); assay type: cell-based, human; set-up: key to Caspase / Caspase MEAN: % of time-matched vehicle control (green object area); settings: for Caspase / activity at 0.01 µM / activity at 0.1 µM / activity at 1 µM / activity at 10 µM: normalized to time-matched vehicle control; for activity at 0.01 µM / activity at 0.1 µM / activity at 1 µM / activity at 10 µM: Homo sapiens, Cardiomyocyte
Experimental: Cor.4U® Cardiomyocytes ([…], Netherlands) were cultured in 96-well plates at density of 25,000 - 30,000 cells per well. Cells were maintained at 5% CO2 and 37 °C for 4 days prior to experiments. […] The plates were incubated 2 h before compound treatment in the IncuCyte ZOOM (ESSEN BioScience, Ann Arbor, Michigan) to set a baseline before the 24 h compound treatment. […] Imaging was done using 10x microscope objective of the IncuCyteZOOM with four images per well-taken every 2 h in both phase-contrast and green fluorescence. The fluorescent nuclear signal of the apoptotic cells was separated from background with the integrated object counting algorithm, adjusted to cardiomyocytes, and the calculated total green object area per well (μm^2/well) plotted against time. Data were normalized to those of the time-matched vehicle control. Data were representative of at least three replicates per concentration.

PI3K p110γ = settings: ref [23]–[25] (NVP-BEZ235), [28] (GDC-0941), [33] (CAL-101), [35] (CZC24832); read-out: Target IC50 p110γ; cited from earlier work
PI3K p110β = settings: ref [23]–[25] (NVP-BEZ235), [27] (LY 294002), [28] (GDC-0941), [32] (TGX-221), [33] (CAL-101), [35] (CZC24832); read-out: Target IC50 p110β; cited from earlier work

SMILES: C[C@@H](N)C1CCC(C(=O)Nc2ccncc2)CC1.Cl.Cl (stereo partly drawn) [Y-27632]
pIC50 (ROCK2): 7.05
ATP ([1]; 0.3 µM, 2h): 105
ATP ([1]; 0.3 µM, 24h): 100
ATP ([1]; 3 µM, 2h): 102
ATP ([1]; 3 µM, 24h): 101
ATP ([1]; 30 µM, 2h): 103
ATP ([1]; 30 µM, 24h): 103
ATP ([1]; 300 µM, 2h): 109
ATP ([1]; 300 µM, 24h): 104
Effect on beating rate, in words [2]: reduced cardiomyocyte beating at both 2 h and 24 h time points
BR ([2]; 0.3 µM, 2h): 101
Base Imp ([2]; 0.3 µM, 2h): 89
BR ([2]; 0.3 µM, 24h): 95
Base Imp ([2]; 0.3 µM, 24h): 88
BR ([2]; 3 µM, 2h): 99
Base Imp ([2]; 3 µM, 2h): 89
BR ([2]; 3 µM, 24h): 100
Base Imp ([2]; 3 µM, 24h): 85
BR ([2]; 30 µM, 2h): 99
Base Imp ([2]; 30 µM, 2h): 80
BR ([2]; 30 µM, 24h): 101
Base Imp ([2]; 30 µM, 24h): 67
BR ([2]; 300 µM, 2h): 76
Base Imp ([2]; 300 µM, 2h): 61
BR ([2]; 300 µM, 24h): 68
Base Imp ([2]; 300 µM, 24h): 54
Secondary beats at 300 uM, MEAN ([2]; 300 uM, unlabelled side calculation under the 24h data): 103.939
Caspase ([3]; 0.3 µM, 2h): 119
Caspase ([3]; 0.3 µM, 24h): 94
Caspase ([3]; 3 µM, 2h): 163
Caspase ([3]; 3 µM, 24h): 129
Caspase ([3]; 30 µM, 2h): 104
Caspase ([3]; 30 µM, 24h): 163
Caspase ([3]; 300 µM, 2h): 96
Caspase ([3]; 300 µM, 24h): 306
Time of notable raise in the caspase-3/7 activity ([3]; highest test concentrations only): 12 to 18 h
Apoptosis (caspase-3/7 activity) at the highest test concentration, in words ([3]; top / highest test concentration, over 24 h): slow initial phase followed by a notable raise in the caspase-3/7 activity

Effect on hSC-CMs function (base impedance and beating rate), in words ([2]; hSC-CMs, 2 and 24 h): did not have any effect
SMILES: CC(C)(C)NS(=O)(=O)c1cncc(-c2cc(F)c3nc(N)nn3c2)c1 [CZC24832]
pIC50 (PI3K p110γ): 7.57
viability at 0.01 µM ([1]; 2h): 100%
viability at 0.01 µM ([1]; 24h): 100%
viability at 0.1 µM ([1]; 2h): 99%
viability at 0.1 µM ([1]; 24h): 97%
viability at 1 µM ([1]; 2h): 99%
viability at 1 µM ([1]; 24h): 97%
viability at 10 µM ([1]; 2h): 101%
viability at 10 µM ([1]; 24h): 100%
Effect on ATP level, in words ([1]; hSC-CMs, up to the highest test concentrations): did not have any effect
activity at 0.01 µM ([2]; 2h, read-out: BR): 100%
activity at 0.01 µM ([2]; 2h, read-out: Base Imp): 98%
activity at 0.01 µM ([2]; 24h, read-out: BR): 96%
activity at 0.01 µM ([2]; 24h, read-out: Base Imp): 99%
activity at 0.1 µM ([2]; 2h, read-out: BR): 95%
activity at 0.1 µM ([2]; 2h, read-out: Base Imp): 98%
activity at 0.1 µM ([2]; 24h, read-out: BR): 98%
activity at 0.1 µM ([2]; 24h, read-out: Base Imp): 97%
activity at 1 µM ([2]; 2h, read-out: BR): 97%
activity at 1 µM ([2]; 2h, read-out: Base Imp): 96%
activity at 1 µM ([2]; 24h, read-out: BR): 98%
activity at 1 µM ([2]; 24h, read-out: Base Imp): 93%
activity at 10 µM ([2]; 2h, read-out: BR): 94%
activity at 10 µM ([2]; 2h, read-out: Base Imp): 93%
activity at 10 µM ([2]; 24h, read-out: BR): 97%
activity at 10 µM ([2]; 24h, read-out: Base Imp): 89%
Change in the hSC-CMs parameters (surface plots: beating rate, base impedance, ATP) ([2]; hSC-CMs, 2 and 24 h): below 20%
pIC50 (PI3K p110β): 5.96
activity at 0.01 µM ([3]; 2h): 87%
activity at 0.01 µM ([3]; 24h): 79%
activity at 0.1 µM ([3]; 2h): 132%
activity at 0.1 µM ([3]; 24h): 88%
activity at 1 µM ([3]; 2h): 109%
activity at 1 µM ([3]; 24h): 68%
activity at 10 µM ([3]; 2h): 102%
activity at 10 µM ([3]; 24h): 76%
Apoptosis (caspase-3/7 activation), result in words ([3]; hSC-CMs, monitored over 24 h): no effect
